Data taken from ChEMBL document CHEMBL1201862, “PubChem BioAssay data set” (2004).
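Tested at 5 concentrations; 48 h exposure; 96-well plates; endpoints linearly interpolated, else capped at highest concentration. GI50 = concentration required for 50% inhibition of growth.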 Activity calls are given as the source filed them. No stated cut-off is given here; in the data, active = GI50 up to about 1.1 µM and inactive = higher.

Assays:
Test in all cases: inhibition of tumour cell growth, NCI panel, 48 h
ACHN = test system: ACHN
HOP-62 = test system: HOP-62
HT-29 = test system: HT-29
Hs-578T = test system: Hs-578T
IGROV-1 = test system: IGROV-1
LOX IMVI = test system: LOX IMVI
MCF7 = test system: MCF7
MDA-MB-231 = test system: MDA-MB-231
MDA-MB-435 = test system: MDA-MB-435
MDA-N = test system: MDA-N
NCI-H226 = test system: NCI-H226
OVCAR-4 = test system: OVCAR-4
PC-3 = test system: PC-3
RXF 393 = test system: RXF 393
SK-MEL-28 = test system: SK-MEL-28
SK-OV-3 = test system: SK-OV-3
SN12C = test system: SN12C
TK-10 = test system: TK-10
U-251 = test system: U-251
UACC-62 = test system: UACC-62

Question: `C=C(C)[C@@]12C[C@H](OC(=O)[C@H](O)[C@@H](NC(=O)c3ccccc3)c3ccccc3)C(C)=C1[C@@H](OC(C)=O)C(=O)[C@@]1(C)C([C@@H]2OC(=O)c2cc(F)cc(F)c2)C2(OC(C)=O)CO[C@@H]2C[C@@H]1O` (stereo not given in full) was tested. Which GI50 (ACHN) did it give?
Answer: Its GI50 is 0.555 µM (active).

Question: What about the GI50 (HOP-62) of the same compound?
Answer: Its GI50 is 0.123 µM (active).

Question: What about the GI50 (HT-29) of the same compound?
Answer: Its GI50 is 0.0278 µM (active).

Question: What about the GI50 (Hs-578T) of the same compound?
Answer: Its GI50 is 0.0186 µM (active).

Question: And the GI50 (IGROV-1)?
Answer: Its GI50 is 0.361 µM (active).

Question: And the GI50 (LOX IMVI)?
Answer: Its GI50 is 0.0791 µM (active).

Question: And the GI50 (MCF7)?
Answer: Its GI50 is 0.029 µM (active).

Question: What about the GI50 (MDA-MB-231) of the same compound?
Answer: Its GI50 is 0.21 µM (active).

Question: And the GI50 (MDA-MB-435)?
Answer: The GI50 was 0.0117 µM (active).

Question: What about the GI50 (MDA-N) of the same compound?
Answer: Its GI50 is 0.0133 µM (active).

Question: What about the GI50 (NCI-H226) of the same compound?
Answer: Its GI50 is 0.883 µM (active).

Question: And the GI50 (OVCAR-4)?
Answer: Its GI50 is 2.38 µM (inactive).

Question: And the GI50 (PC-3)?
Answer: The GI50 was 0.0826 µM (active).

Question: And the GI50 (RXF 393)?
Answer: The GI50 was 0.0578 µM (active).

Question: What about the GI50 (SK-MEL-28) of the same compound?
Answer: Its GI50 is 0.363 µM (active).

Question: And the GI50 (SK-OV-3)?
Answer: Its GI50 is 0.417 µM (active).

Question: What about the GI50 (SN12C) of the same compound?
Answer: The GI50 was 0.144 µM (active).

Question: And the GI50 (TK-10)?
Answer: The GI50 was 0.3 µM (active).

Question: And the GI50 (U-251)?
Answer: The GI50 was 0.0822 µM (active).

Question: What about the GI50 (UACC-62) of the same compound?
Answer: Its GI50 is 0.076 µM (active).

Question: What does the source list for `COc1cc(/C=C2\Sc3scc(-c4cccc([N+](=O)[O-])c4)[n+]3C2=O)cc(OC)c1OC`?
Answer: GI50 (ACHN): 14.9 µM (inactive); GI50 (HOP-62): 16.6 µM (inactive); GI50 (HT-29): 13.1 µM (inactive); GI50 (Hs-578T): 10.8 µM (inactive); GI50 (IGROV-1): 14 µM (inactive); GI50 (LOX IMVI): 10.7 µM (inactive); GI50 (MCF7): 4.15 µM (inactive); GI50 (MDA-MB-231): 7.29 µM (inactive); GI50 (MDA-MB-435): 12.6 µM (inactive); GI50 (MDA-N): 11.9 µM (inactive); GI50 (NCI-H226): 5.2 µM (inactive); GI50 (OVCAR-4): 15.3 µM (inactive); GI50 (PC-3): 21.4 µM (inactive); GI50 (RXF 393): 12.5 µM (inactive); GI50 (SK-MEL-28): 16.1 µM (inactive); GI50 (SK-OV-3): 23.6 µM (inactive); GI50 (SN12C): 18.1 µM (inactive); GI50 (TK-10): 10.7 µM (inactive); GI50 (U-251): 11.6 µM (inactive); GI50 (UACC-62): 11.3 µM (inactive)

Question: `CCNCCCCNCCCCNCCCCNCCCCNCC` was tested. Which GI50 (ACHN) did it give?
Answer: Its GI50 is > 89.9 µM (inactive).

Question: And the GI50 (HOP-62)?
Answer: The GI50 was 26.4 µM (inactive).

Question: What about the GI50 (HT-29) of the same compound?
Answer: Its GI50 is 18.6 µM (inactive).

Question: And the GI50 (Hs-578T)?
Answer: The GI50 was 2.84 µM (inactive).

Question: What about the GI50 (IGROV-1) of the same compound?
Answer: The GI50 was 41.9 µM (inactive).

Question: What about the GI50 (LOX IMVI) of the same compound?
Answer: The GI50 was 32 µM (inactive).

Question: And the GI50 (MCF7)?
Answer: Its GI50 is > 100 µM (inactive).

Question: What about the GI50 (MDA-MB-231) of the same compound?
Answer: Its GI50 is > 100 µM (inactive).

Question: What about the GI50 (MDA-MB-435) of the same compound?
Answer: Its GI50 is 8.97 µM (inactive).

Question: What about the GI50 (MDA-N) of the same compound?
Answer: The GI50 was 12.3 µM (inactive).

Question: What about the GI50 (NCI-H226) of the same compound?
Answer: The GI50 was > 100 µM (inactive).

Question: And the GI50 (OVCAR-4)?
Answer: The GI50 was > 22.2 µM (inactive).

Question: What about the GI50 (PC-3) of the same compound?
Answer: Its GI50 is > 100 µM (inactive).

Question: And the GI50 (RXF 393)?
Answer: The GI50 was 27.7 µM (inactive).

Question: And the GI50 (SK-MEL-28)?
Answer: Its GI50 is 9.14 µM (inactive).

Question: And the GI50 (SK-OV-3)?
Answer: The GI50 was > 100 µM (inactive).

Question: And the GI50 (SN12C)?
Answer: Its GI50 is > 95.1 µM (inactive).

Question: What about the GI50 (TK-10) of the same compound?
Answer: The GI50 was 29.7 µM (inactive).

Question: What about the GI50 (U-251) of the same compound?
Answer: Its GI50 is > 100 µM (inactive).

Question: What about the GI50 (UACC-62) of the same compound?
Answer: The GI50 was 14.4 µM (inactive).

Question: How did the GI50 (ACHN) turn out when `CC(C)C(Br)CCC1=CCC(Br)(Br)C1` (stereo not given) was run?
Answer: The GI50 was 16.9 µM (inactive).

Question: And the GI50 (HOP-62)?
Answer: The GI50 was 17 µM (inactive).

Question: And the GI50 (HT-29)?
Answer: The GI50 was 13.5 µM (inactive).

Question: And the GI50 (Hs-578T)?
Answer: Its GI50 is 18.6 µM (inactive).

Question: What about the GI50 (IGROV-1) of the same compound?
Answer: The GI50 was 3.21 µM (inactive).

Question: What about the GI50 (LOX IMVI) of the same compound?
Answer: The GI50 was 1.41 µM (inactive).

Question: And the GI50 (MCF7)?
Answer: The GI50 was 10.8 µM (inactive).

Question: And the GI50 (MDA-MB-231)?
Answer: Its GI50 is 5.27 µM (inactive).

Question: And the GI50 (MDA-MB-435)?
Answer: Its GI50 is 10.5 µM (inactive).

Question: What about the GI50 (MDA-N) of the same compound?
Answer: Its GI50 is 2.94 µM (inactive).

Question: What about the GI50 (NCI-H226) of the same compound?
Answer: The GI50 was 11.9 µM (inactive).

Question: And the GI50 (OVCAR-4)?
Answer: Its GI50 is 9.1 µM (inactive).

Question: And the GI50 (PC-3)?
Answer: The GI50 was 14.9 µM (inactive).

Question: What about the GI50 (RXF 393) of the same compound?
Answer: The GI50 was 15.2 µM (inactive).

Question: What about the GI50 (SK-MEL-28) of the same compound?
Answer: Its GI50 is 15.6 µM (inactive).

Question: What about the GI50 (SK-OV-3) of the same compound?
Answer: The GI50 was 13.1 µM (inactive).

Question: And the GI50 (SN12C)?
Answer: The GI50 was 4.2 µM (inactive).

Question: What about the GI50 (TK-10) of the same compound?
Answer: Its GI50 is 17.5 µM (inactive).

Question: And the GI50 (U-251)?
Answer: The GI50 was 15.4 µM (inactive).

Question: And the GI50 (UACC-62)?
Answer: The GI50 was 6.58 µM (inactive).
